Assay results as given in PubChem BioAssay AID1919005 (Molecular Pharmacology Branch, DTP, NCI, 2023).
pIC50: −log10 of the molar value. Where “and” joins values, the source holds several entries; their conditions need not be identical. Equal entries are not always repeated.

Test system: 855422-203-R-J1-PDC complex spheroid growth
Test: Anticancer human tumor 855422-203-R-J1-PDC patient-derived bladder carcinoma cell line growth inhibition [AhR]
Details: for viability, T/C: stronger effect = lower value
Outline: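 Complex tumor spheroids co-cultured with HUVEC and human MSC stroma; AhR antagonists tested in combination with standard-of-care and investigational agents. Top concentration at or near clinical Cmax (else 10 microM), half-log dilutions; growth expressed as percent test/control.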

[1] = curve of first compound, second compound 0.1 µM
[2] = curve of first compound, second compound 0.316 µM
[3] = curve of first compound, second compound 1 µM
[4] = curve of first compound, second compound 3.16 µM
[5] = curve of first compound, second compound 10 µM
[6] = second compound 0.1 µM, first compound 0.0316 µM
[7] = second compound 0.1 µM, first compound 0.1 µM
[8] = second compound 0.1 µM, first compound 0.316 µM
[9] = second compound 0.1 µM, first compound 1 µM
[10] = second compound 0.1 µM, first compound 3.16 µM
[11] = second compound 0.1 µM, first compound 10 µM
[12] = second compound 0.316 µM, first compound 0.0316 µM
[13] = second compound 0.316 µM, first compound 0.1 µM
[14] = second compound 0.316 µM, first compound 0.316 µM
[15] = second compound 0.316 µM, first compound 1 µM
[16] = second compound 0.316 µM, first compound 3.16 µM
[17] = second compound 0.316 µM, first compound 10 µM
[18] = second compound 1 µM, first compound 0.0316 µM
[19] = second compound 1 µM, first compound 0.1 µM
[20] = second compound 1 µM, first compound 0.316 µM
[21] = second compound 1 µM, first compound 1 µM
[22] = second compound 1 µM, first compound 3.16 µM
[23] = second compound 1 µM, first compound 10 µM
[24] = second compound 3.16 µM, first compound 0.0316 µM
[25] = second compound 3.16 µM, first compound 0.1 µM
[26] = second compound 3.16 µM, first compound 0.316 µM
[27] = second compound 3.16 µM, first compound 1 µM
[28] = second compound 3.16 µM, first compound 3.16 µM
[29] = second compound 3.16 µM, first compound 10 µM
[30] = second compound 10 µM, first compound 0.0316 µM
[31] = second compound 10 µM, first compound 0.1 µM
[32] = second compound 10 µM, first compound 0.316 µM
[33] = second compound 10 µM, first compound 1 µM
[34] = second compound 10 µM, first compound 3.16 µM
[35] = second compound 10 µM, first compound 10 µM
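Note: spheroids exposed to agents for seven days before readout.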
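Throughout, for viability, T/C: percent of DMSO vehicle control luminescence viability.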

CC1COCCN1c1cc(C2(S(C)(=N)=O)CC2)nc(-c2ccnc3[nH]ccc23)n1 (configuration not stated) + Cc1ccccc1N=Nc1ccc(NC(=O)c2ccnn2C)c(C)c1
pIC50 [1]: < 5.00
pIC50 [2]: < 5.00
pIC50 [3]: < 5.00
pIC50 [4]: < 5.00
pIC50 [5]: 5.10
viability, T/C [6]: 95.5%
viability, T/C [7]: 95.4%
viability, T/C [8]: 97.4%
viability, T/C [9]: 99.4%
viability, T/C [10]: 110%
viability, T/C [11]: 54.9%
viability, T/C [12]: 105%
viability, T/C [13]: 99.2%
viability, T/C [14]: 104%
viability, T/C [15]: 101%
viability, T/C [16]: 121%
viability, T/C [17]: 55.4%
viability, T/C [18]: 102%
viability, T/C [19]: 98.4%
viability, T/C [20]: 95%
viability, T/C [21]: 106%
viability, T/C [22]: 125%
viability, T/C [23]: 60%
viability, T/C [24]: 91%
viability, T/C [25]: 91.4%
viability, T/C [26]: 92.9%
viability, T/C [27]: 102%
viability, T/C [28]: 109%
viability, T/C [29]: 50.8%
viability, T/C [30]: 83.5%
viability, T/C [31]: 79%
viability, T/C [32]: 83.6%
viability, T/C [33]: 93.3%
viability, T/C [34]: 82%
viability, T/C [35]: 41.4%

COc1cccc2c1C(=O)c1c(O)c3c(c(O)c1C2=O)CC(O)(C(=O)CO)CC3OC1CC(N)C(O)C(C)O1 (configuration not stated) + Cc1cncc(-c2nc(NCCc3c[nH]c4ccccc34)c3ncn(C(C)C)c3n2)c1
pIC50 [1]: > 7.50
pIC50 [2]: > 7.50
pIC50 [3]: > 7.50
pIC50 [4]: > 7.50
pIC50 [5]: > 7.50
viability, T/C [6]: 19.5%
viability, T/C [7]: 15.4%
viability, T/C [8]: 2.05%
viability, T/C [9]: 0.85%
viability, T/C [10]: 1.02%
viability, T/C [11]: 1.75%
viability, T/C [12]: 22.4%
viability, T/C [13]: 13.7%
viability, T/C [14]: 1.65%
viability, T/C [15]: 0.73%
viability, T/C [16]: 0.93%
viability, T/C [17]: 1.37%
viability, T/C [18]: 17.8%
viability, T/C [19]: 10.3%
viability, T/C [20]: 4.93%
viability, T/C [21]: 4.6%
viability, T/C [22]: 0.74%
viability, T/C [23]: 1.14%
viability, T/C [24]: 17.9%
viability, T/C [25]: 7.51%
viability, T/C [26]: 2.13%
viability, T/C [27]: 1.95%
viability, T/C [28]: 1.19%
viability, T/C [29]: 0.94%
viability, T/C [30]: 4.02%
viability, T/C [31]: 1.33%
viability, T/C [32]: 0.55%
viability, T/C [33]: 0.22%
viability, T/C [34]: 0.28%
viability, T/C [35]: 0.3%

COc1ccc([C@@H](O)c2cc(-c3ncnc4cc(N5CCOCC5)ccc34)c(F)cc2Cl)nn1 + Cc1cncc(-c2nc(NCCc3c[nH]c4ccccc34)c3ncn(C(C)C)c3n2)c1
pIC50 [1]: < 5.00
pIC50 [2]: 5.03
pIC50 [3]: 5.22
pIC50 [4]: 5.62
pIC50 [5]: > 7.50
viability, T/C [6]: 101%
viability, T/C [7]: 90.6%
viability, T/C [8]: 93.7%
viability, T/C [9]: 83.8%
viability, T/C [10]: 76.7%
viability, T/C [11]: 50.9%
viability, T/C [12]: 97.1%
viability, T/C [13]: 88.6%
viability, T/C [14]: 77.2%
viability, T/C [15]: 86.8%
viability, T/C [16]: 74.5%
viability, T/C [17]: 47.8%
viability, T/C [18]: 90.5%
viability, T/C [19]: 94.6%
viability, T/C [20]: 79.9%
viability, T/C [21]: 74.5%
viability, T/C [22]: 69.1%
viability, T/C [23]: 37.6%
viability, T/C [24]: 79.5%
viability, T/C [25]: 85.6%
viability, T/C [26]: 67.2%
viability, T/C [27]: 54.7%
viability, T/C [28]: 52.6%
viability, T/C [29]: 27.9%
viability, T/C [30]: 6.06%
viability, T/C [31]: 3.37%
viability, T/C [32]: 1.79%
viability, T/C [33]: 0.4%
viability, T/C [34]: 6.5%
viability, T/C [35]: 9.38%

COc1cccc2c1C(=O)c1c(O)c3c(c(O)c1C2=O)CC(O)(C(=O)CO)CC3OC1CC(N)C(O)C(C)O1 (configuration not stated) + Cc1ccccc1N=Nc1ccc(NC(=O)c2ccnn2C)c(C)c1
pIC50 [1]: > 7.50
pIC50 [2]: > 7.50
pIC50 [3]: > 7.50
pIC50 [4]: > 7.50
pIC50 [5]: > 7.50
viability, T/C [6]: 47%
viability, T/C [7]: 32.6%
viability, T/C [8]: 7.99%
viability, T/C [9]: 2.76%
viability, T/C [10]: 2.93%
viability, T/C [11]: 5.62%
viability, T/C [12]: 32%
viability, T/C [13]: 24.1%
viability, T/C [14]: 6.58%
viability, T/C [15]: 2.77%
viability, T/C [16]: 2.16%
viability, T/C [17]: 3.66%
viability, T/C [18]: 45.6%
viability, T/C [19]: 25.8%
viability, T/C [20]: 6.31%
viability, T/C [21]: 2.89%
viability, T/C [22]: 2.5%
viability, T/C [23]: 4.52%
viability, T/C [24]: 39.9%
viability, T/C [25]: 26.4%
viability, T/C [26]: 4.8%
viability, T/C [27]: 3.4%
viability, T/C [28]: 1.63%
viability, T/C [29]: 3.98%
viability, T/C [30]: 39.6%
viability, T/C [31]: 29.7%
viability, T/C [32]: 6.61%
viability, T/C [33]: 2.6%
viability, T/C [34]: 2.02%
viability, T/C [35]: 3.27%

CC[C@@]1(O)C(=O)OCc2c1cc1n(c2=O)Cc2cc3c(CN(C)C)c(O)ccc3nc2-1
viability, T/C (compound 0.000316 µM): 93% and 97.1% and 101%
viability, T/C (compound 0.001 µM): 114% and 106% (2×)
viability, T/C (compound 0.00316 µM): 98.4% and 103% and 105%
viability, T/C (compound 0.01 µM): 99.3% and 101% and 106%
viability, T/C (compound 0.0316 µM): 85% and 93.4% and 94.9%
viability, T/C (compound 0.1 µM): 22.1% and 33.6% and 47.4%
pIC50 (curve of compound): 7.22 and 7.14 and 7.02

CC(C)CC(NC(=O)C(Cc1ccccc1)NC(=O)c1cnccn1)B(O)O (configuration not stated) + CC(CO)NC(=O)c1cc(-c2ccc(Cl)cc2)nn(-c2cnn(C)c2)c1=O
pIC50 [1]: 8.74
pIC50 [2]: 8.74
pIC50 [3]: 8.75
pIC50 [4]: 8.81
pIC50 [5]: 8.85
viability, T/C (second compound 0.1 µM, first compound 0.000949 µM): 115%
viability, T/C (second compound 0.1 µM, first compound 0.003 µM): 0.93%
viability, T/C (second compound 0.1 µM, first compound 0.00949 µM): 0.37%
viability, T/C (second compound 0.1 µM, first compound 0.03 µM): 0.65%
viability, T/C (second compound 0.1 µM, first compound 0.0949 µM): 0.65%
viability, T/C (second compound 0.1 µM, first compound 0.3 µM): 0.89%
viability, T/C (second compound 0.316 µM, first compound 0.000949 µM): 113%
viability, T/C (second compound 0.316 µM, first compound 0.003 µM): 1.18%
viability, T/C (second compound 0.316 µM, first compound 0.00949 µM): 0.04%
viability, T/C (second compound 0.316 µM, first compound 0.03 µM): 0.01%
viability, T/C (second compound 0.316 µM, first compound 0.0949 µM): 0.02%
viability, T/C (second compound 0.316 µM, first compound 0.3 µM): 0.12%
viability, T/C (second compound 1 µM, first compound 0.000949 µM): 111%
viability, T/C (second compound 1 µM, first compound 0.003 µM): 0.73%
viability, T/C (second compound 1 µM, first compound 0.00949 µM): 0.02%
viability, T/C (second compound 1 µM, first compound 0.03 µM): 0.22%
viability, T/C (second compound 1 µM, first compound 0.0949 µM): 0.02%
viability, T/C (second compound 1 µM, first compound 0.3 µM): 0.11%
viability, T/C (second compound 3.16 µM, first compound 0.000949 µM): 86.3%
viability, T/C (second compound 3.16 µM, first compound 0.003 µM): 0.7%
viability, T/C (second compound 3.16 µM, first compound 0.00949 µM): 2.8%
viability, T/C (second compound 3.16 µM, first compound 0.03 µM): 0.03%
viability, T/C (second compound 3.16 µM, first compound 0.0949 µM): 0.14%
viability, T/C (second compound 3.16 µM, first compound 0.3 µM): 0.14%
viability, T/C (second compound 10 µM, first compound 0.000949 µM): 76.3%
viability, T/C (second compound 10 µM, first compound 0.003 µM): 1%
viability, T/C (second compound 10 µM, first compound 0.00949 µM): 0.16%
viability, T/C (second compound 10 µM, first compound 0.03 µM): 0.18%
viability, T/C (second compound 10 µM, first compound 0.0949 µM): 0.14%
viability, T/C (second compound 10 µM, first compound 0.3 µM): 0.2%

CC(CO)NC(=O)c1cc(-c2ccc(Cl)cc2)nn(-c2cnn(C)c2)c1=O (configuration not stated)
viability, T/C (compound 0.1 µM): 92.2% [middle of 20 runs]
viability, T/C (compound 1 µM): 94.9% [middle of 21 runs]
viability, T/C (compound 3.16 µM): 96.8% [middle of 19 runs]
viability, T/C (compound 10 µM): 91.4% [middle of 19 runs]
pIC50 (compound alone, run of 05/31/2022): < 5.00
